Experimental data published in PubChem BioAssay (NCI).
“And” between values parts separate entries of the source, which are not always exact repeats. Equal entries are not always repeated.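 These data come from cells grown in 96-well plates and exposed to compound for 48 hours at five concentrations. The concentration for 50% growth inhibition is given as GI50. TGI: total growth inhibition.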

Experiments:
Assay in all cases: DTP human tumour cell line panel, 48 h
[1] = test system: DMS 273 small cell lung
[2] = test system: HOP-18 NSCLC
[3] = test system: KM20L2 colon
[4] = test system: SNB-78 CNS
[5] = test system: XF 498 CNS
[6] = test system: RXF-631 renal

SMILES | TGI [1] | TGI [2] | TGI [3] | TGI [4] | TGI [5] | GI50 [3] | TGI [6] [µM] | GI50 [5]
CCOc1ccc(N(CC(=O)N2CC(=O)Nc3cc(C)c(C)cc32)C(C)=O)cc1 | > 100 µM | > 100 µM | > 100 µM | > 100 µM | > 100 µM | – | – | –
O=C(CCN1CCCCC1)Nc1ccc2c(c1)C(=O)c1ccc(NC(=O)CCN3CCCCC3)cc1C2=O | 3.87 µM | 30.7 µM | 33.2 µM | 29.8 µM | – | – | – | –
N=S(c1ccccc1[N+](=O)[O-])c1ccccc1[N+](=O)[O-] | 5.15 µM and 7.87 µM | 19.5 µM and 15.8 µM | 11.2 µM and 27.4 µM | 9.2 µM and 8.28 µM | 11.5 µM and 6.15 µM | 5.21 µM and 12.9 µM | 3.43 | 4.84 µM and 2.14 µM
COc1ccc(OC2(c3cc(OC)ccc3OC)OC(=O)c3ccccc32)cc1 (stereo unspecified) | > 100 µM | > 100 µM | > 100 µM | > 100 µM | – | – | > 100 | –
COc1cccc(C2=NC(C(C)C)CO2)c1OC (stereo unspecified) | > 100 µM | – | > 100 µM | > 100 µM | > 100 µM | – | – | –
N#C/C(c1nc2ccccc2[nH]1)=c1\s/c(=C/c2ccccc2)c(=O)n1-c1ccccc1 | > 100 µM | – | > 100 µM | – | > 100 µM | – | – | –
CC1(O)CC2C(CC1SC1CC3C(CC1(C)O)C3(C)C)C2(C)C (stereo unspecified) | > 100 µM | > 100 µM | – | > 100 µM | > 100 µM | – | – | –
COc1cc2c(c(OC)c1OC)-c1ccc(SC)c(=O)cc1[C@@H](NC(=O)c1cccc([N+](=O)[O-])c1)CC2 | 70.2 µM | – | 0.0358 µM | > 100 µM | – | – | – | –
O=C1C(Cl)C(c2ccccc2Cl)N1n1cnc2ccccc2c1=O (stereo unspecified) | > 100 µM | – | > 100 µM | > 100 µM | > 100 µM | – | – | –
CCOC(=O)c1c(CN2CCNCC2)nc2ccc(Cl)cc2c1-c1ccccc1 | 5.56 µM | 15.5 µM | 6.87 µM | 24.7 µM | 9.43 µM | – | 6.68 | –
CCc1cccc(C(C)C)c1NC(=O)/C(=N\NC(N)=O)C(C(=O)OC)c1cnc2ccccc2n1 (stereo unspecified) | > 100 µM | 98.2 µM | > 100 µM | > 100 µM | > 100 µM | – | > 100 | –
Cc1cc(N(CCC#N)CCC#N)ccc1/C=C1N=C(/C=C\c2ccccc2)N(NC(=O)CC(=O)Nc2ccccc2Cl)C\1=O | – | > 100 µM | > 100 µM | – | – | – | > 100 | –
CCOC(=O)C(C)NC(=O)NC12CC3CC(CC(F)(C3)C1)C2 (stereo unspecified) | > 100 µM | – | > 100 µM | 83.3 µM | 89.4 µM | – | – | –
CC(C)N(C(=O)C12C3C4C5C3C1(C(=O)O)C5C42)C(C)C (stereo unspecified) | > 100 µM | – | > 100 µM | > 100 µM | > 100 µM | – | > 100 | –
COc1cc([C@@H]2c3cc4c(cc3[C@@H](NCc3ccccc3F)C3COC(=O)[C@@H]32)OCO4)cc(OC)c1O (stereo partly specified) | 21.2 µM | > 100 µM | 8.65 µM | > 100 µM | – | – | 19.8 | –
CC(C)C1=Cc2ccc3c(c2C(=O)C1=O)CCCC3 | 13.6 µM | 8.96 µM | 42.7 µM | 11.9 µM | 5.53 µM | – | 25.1 | –
NC(=O)N/N=C(\CC1OC(=O)c2ccccc21)c1ccc([N+](=O)[O-])cc1 (stereo unspecified) | 76.1 µM | – | 96.2 µM | – | > 100 µM | – | – | –
CC(=O)NC(CCCCNCc1ccccc1)C(=O)NCc1ccccc1 (stereo unspecified) | > 100 µM | – | > 100 µM | > 100 µM | > 100 µM | – | – | –
COC(=O)C(Cc1nc2ccc(Cl)cc2[nH]c1=O)C(=O)C(=O)Nc1cc(C)ccc1C (stereo unspecified) | > 100 µM | > 100 µM | > 100 µM | > 100 µM | > 100 µM | – | > 100 | –
N#CC(NNC(=O)Cc1ccccc1)c1ccc([N+](=O)[O-])cc1 (stereo unspecified) | > 100 µM | > 100 µM | – | > 100 µM | – | – | – | –
